Measured values reported in patent publication EP0643699B1, “6-(2-HYDROXYETHYLAMINOALKYL)-5,11-DIOXO-5,6-DIHYDRO-11H- INDENO[1,2-C]ISOQUINOLINES AND THEIR USE AS ANTINEOPLASTIC AGENTS” (priority 1991, dated 1993).
pIC50: −log10 of the molar value. Read-outs that look alike come from different tables or passages of the source. Marks after values point to notes of the source that are not given here.

Columns and labels:
Sa37 sarcoma = test: Antitumour activity in S37 ascites sarcoma bearing mice (tumour weight, total ascitocrit, survival); format: in vivo, mice H
Description: (§1) The antineoplastic activity of the compounds of the invention has been investigated testing the compounds of the chemical group "in vivo" against experimental rodent tumors such as the solid form of Ehrlich tumour (STE, originally mammary adenocarcinoma), tumor HK (also transplantable originally mammary adenocarcinoma), Krebs' ascites tumour (Kr2), S37 ascites sarcoma, Nemeth-Keller lymphoma (NK), all maintained in mice H, Gardner lymphosarcoma (LsG, maintained in mice C3H), P388 and/or L1210 leukemia (maintained in DBA2 mice), B16 metastasizing melanocarcinoma (maintained in C57B1/6 mice) and Yoshida ascites reticulosarcoma (Y, maintained in Wistar rats) in experiments according to Jelinek, V. [Neoplasma 12, 469 (1965); ibid 7, 146 (1960)] and in "in vitro" experiments using radioactive precursors of nucleic acids and proteins according to Miko, M. et al. [Cancer Res 39, 4242 (1979); Neoplasma 26, 449 (1979); ibid 16, 161 (1969)] with minor modifications [Mattern, J.: Studies on the Drug Sensitivity of Short Term Cultured Tumour Cell Suspensions. In "Human Tumours in Short Term Culture" (Dendy, P.P. ed.), p.301, Academic Press 1976]. The Cox's proportional-hazards model was used for survival evaluation and optimal dose calculation according to Carter, V.H. et al. [cf Cancer Res. 42, 2963 (1982)].
Eighty female mice H weighing approximately 20 g were divided into four groups: one control group and three experimental groups of 20 animal each. A lethal dose of the Sa37 sarcoma ascitic fluid was implanted intraperitoneally to all the animals. The animals of test groups were treated using the compound suspended in water. The suspension contained the substance in such a concentration that dose 0.6, 0.4 and/or 0.2ml of the suspension p.o. was equal to dose 240, 160 and/or 80 mg/kg p.o., respectively. The drug was administered to the experimental animals once, a day after tumour transplantation. On the tenth day after the tumour transplantation, half of the animals in each group were killed by ether anaesthesia, ascites were emptied after laparotomia and the tumour weight was assessed in all animals from the weight difference before and after laparotomia and ascites removing. In ascites fluid the volume of tumour cell fraction was determined. The remaining animals were left to monitor the time of death and survival time was followed. […] It was also observed that the treated animals survived longer than untreated control animals. […] The results of the experiment are summarized in the following table: Antitumour activity of 6-[2-(2-hydroxyethyl)aminoethyl]5,11-dioxo-5,6-dihydro-11H-indeno[1,2-c]isoquinoline (the substance I, X=2) in S37 sarcoma bearing mice.
In an analogous experiment carried out on the animals with implanted Sa37 sarcoma the substance I (X=2) was administered in seven daily doses, and the substance I (X=3) in four days. The results of the experiment are summarized in the following table: Antitumour activity of 6-[2-(2-hydroxyethyl)aminoethyl]5,11-dioxo-5,6-dihydro-11H-indeno[1,2-c]isoquinoline (the substance I, X=2) and 6-[3-(2-hydroxyethyl)aminopropyl]5,11-dioxo-5,6-dihydro-11H-indeno[1,2-c]isoquinoline (the substance I, X=3) in S37 bearing mice.
In an experiment carried out on the animals with implanted Sa37 sarcoma the substance I (X=0) was administered in eight daily doses (analogously as in example 6).

L1210 leukemia cells = test: Cytotoxicity: incorporation of [14C]amino-acid mixture into trichloroacetic acid-insoluble fraction of cells; format: cell-based, DBA2 mice; conditions: Mus musculus; Tumor L1210; Precursor [U-14C]Amino-acid mixture
Description: as §1, with “(1982)]. […]” for “(1982)].”

L1210 = test: Optimal dose (ED 95) in L1210 leukemia bearing mice; format: in vivo; conditions: L1210 bearing mice DBA2
Description: as §1, with “(1982)]. […]” for “(1982)].”

[1] = 10 mg/kg p.o., seven daily doses
[2] = 20 mg/kg p.o., seven daily doses
[3] = 30 mg/kg p.o., seven daily doses
[4] = 80 mg/kg p.o. once, a day after tumour transplantation, assessed on the tenth day
[5] = 160 mg/kg p.o. once, a day after tumour transplantation, assessed on the tenth day
[6] = 240 mg/kg p.o. once, a day after tumour transplantation, assessed on the tenth day

Q: Which results are given for `O=C1c2ccccc2-c2c1c1ccccc1c(=O)n2CCNCCO` [I (X=2), 6-[2-(2-hydroxyethyl)aminoethyl]-5,11-dioxo-5,6-dihydro-11H-indeno[1,2-c]isoquinoline]?
A: Survival time (T/C, %) (Sa37 sarcoma; [1]): 129%; Total ascitocrit (T/C, %) (Sa37 sarcoma; [1]): 73^b) %; Tumour weight (T/C, %) (Sa37 sarcoma; [1]): 66^b) %; Survival time (T/C, %) (Sa37 sarcoma; [2]): 129^a) %; Total ascitocrit (T/C, %) (Sa37 sarcoma; [2]): 73^a) %; Tumour weight (T/C, %) (Sa37 sarcoma; [2]): 64^b) %; Survival time (T/C, %) (Sa37 sarcoma; [3]): 86%; Total ascitocrit (T/C, %) (Sa37 sarcoma; [3]): 40^b) %; Tumour weight (T/C, %) (Sa37 sarcoma; [3]): 32^b) %; Survival time (T/C, %) (Sa37 sarcoma; 80 mg/kg p.o. once, a day after tumour transplantation): 107%; Total ascitocrit (T/C, %) (Sa37 sarcoma; [4]): 64^c) %; Tumour weight (T/C, %) (Sa37 sarcoma; [4]): 61^c) %; Survival time (T/C, %) (Sa37 sarcoma; 160 mg/kg p.o. once, a day after tumour transplantation): 111%; Total ascitocrit (T/C, %) (Sa37 sarcoma; [5]): 65^c) %; Tumour weight (T/C, %) (Sa37 sarcoma; [5]): 59^c) %; Survival time (T/C, %) (Sa37 sarcoma; 240 mg/kg p.o. once, a day after tumour transplantation): 119^b) %; Total ascitocrit (T/C, %) (Sa37 sarcoma; [6]): 47^c) %; Tumour weight (T/C, %) (Sa37 sarcoma; [6]): 42^c) %; pIC50 (L1210 leukemia cells): 4.11; ED95 (L1210; Mus musculus, po, read-out: ED 95): 225 mg/kg; ED95 (L1210; p.o., dose per body surface): 675 mg/m^2
